Reference: patent publication US20230210825A1, “METHODS AND COMPOSITIONS FOR TREATING SUBJECTS WITH METABOLIC DISORDERS AND CORONAVIRUS INFECTIONS” (CIRIUS THERAPEUTICS, INC., priority 2020, published 2023)

How the values were obtained:
[1] = metabolite share of combined exposure after MSDC-0602
[2] = target: T1, organic anion transporter 3 (OAT3) (Homo sapiens, UniProt Q8TCC7); experiment: OAT3 inhibition
T1 sequence (Q8TCC7 1-542): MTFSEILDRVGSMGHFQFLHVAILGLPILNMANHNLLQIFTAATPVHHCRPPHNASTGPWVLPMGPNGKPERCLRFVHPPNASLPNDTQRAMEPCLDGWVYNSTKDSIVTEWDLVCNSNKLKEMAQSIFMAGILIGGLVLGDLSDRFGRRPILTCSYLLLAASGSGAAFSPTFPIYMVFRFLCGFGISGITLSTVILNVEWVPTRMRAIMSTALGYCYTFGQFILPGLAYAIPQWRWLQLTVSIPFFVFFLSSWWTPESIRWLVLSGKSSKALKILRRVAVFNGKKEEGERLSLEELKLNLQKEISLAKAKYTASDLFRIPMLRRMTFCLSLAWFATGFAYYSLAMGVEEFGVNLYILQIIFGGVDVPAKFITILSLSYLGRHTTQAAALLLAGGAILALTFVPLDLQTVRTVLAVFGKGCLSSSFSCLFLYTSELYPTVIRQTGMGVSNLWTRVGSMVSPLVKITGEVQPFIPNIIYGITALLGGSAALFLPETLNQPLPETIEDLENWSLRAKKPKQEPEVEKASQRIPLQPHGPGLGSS

[3] = target: T2, mitochondrial pyruvate carrier (MPC) (Homo sapiens, UniProt O95563+Q9Y5U8); experiment: Relative binding affinity for the MPC (FIG. 2)
T2 sequence (Q9Y5U8 1-109): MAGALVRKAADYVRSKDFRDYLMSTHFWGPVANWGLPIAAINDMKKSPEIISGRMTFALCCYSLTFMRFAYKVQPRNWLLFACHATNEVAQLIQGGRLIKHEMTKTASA
T2 sequence (O95563 1-127): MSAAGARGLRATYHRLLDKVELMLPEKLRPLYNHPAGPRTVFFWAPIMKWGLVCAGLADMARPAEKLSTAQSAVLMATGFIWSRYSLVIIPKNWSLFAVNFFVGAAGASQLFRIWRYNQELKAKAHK

[4] = target: T3, PPARγ (Homo sapiens, UniProt P37231); experiment: Relative binding affinity for PPARγ (FIG. 1); details: FIG. 1, relative binding affinity
T3 sequence (P37231 1-505): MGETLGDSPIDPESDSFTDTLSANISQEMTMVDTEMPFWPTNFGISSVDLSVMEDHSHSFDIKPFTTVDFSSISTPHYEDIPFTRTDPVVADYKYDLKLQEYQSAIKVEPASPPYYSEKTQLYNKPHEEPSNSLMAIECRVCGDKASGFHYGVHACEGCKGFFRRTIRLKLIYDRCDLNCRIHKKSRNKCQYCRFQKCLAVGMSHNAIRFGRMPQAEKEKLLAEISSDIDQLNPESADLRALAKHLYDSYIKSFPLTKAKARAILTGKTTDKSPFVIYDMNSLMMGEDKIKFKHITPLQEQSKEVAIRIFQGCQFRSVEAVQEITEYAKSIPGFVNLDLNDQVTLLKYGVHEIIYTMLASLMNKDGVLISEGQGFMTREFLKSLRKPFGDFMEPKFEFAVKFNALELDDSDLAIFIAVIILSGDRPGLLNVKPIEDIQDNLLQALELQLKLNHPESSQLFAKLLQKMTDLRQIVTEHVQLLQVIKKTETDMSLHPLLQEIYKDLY

[5] = target: CYP2C8 (Homo sapiens, UniProt P10632)
Sequence of CYP2C8 (P10632 whole entry): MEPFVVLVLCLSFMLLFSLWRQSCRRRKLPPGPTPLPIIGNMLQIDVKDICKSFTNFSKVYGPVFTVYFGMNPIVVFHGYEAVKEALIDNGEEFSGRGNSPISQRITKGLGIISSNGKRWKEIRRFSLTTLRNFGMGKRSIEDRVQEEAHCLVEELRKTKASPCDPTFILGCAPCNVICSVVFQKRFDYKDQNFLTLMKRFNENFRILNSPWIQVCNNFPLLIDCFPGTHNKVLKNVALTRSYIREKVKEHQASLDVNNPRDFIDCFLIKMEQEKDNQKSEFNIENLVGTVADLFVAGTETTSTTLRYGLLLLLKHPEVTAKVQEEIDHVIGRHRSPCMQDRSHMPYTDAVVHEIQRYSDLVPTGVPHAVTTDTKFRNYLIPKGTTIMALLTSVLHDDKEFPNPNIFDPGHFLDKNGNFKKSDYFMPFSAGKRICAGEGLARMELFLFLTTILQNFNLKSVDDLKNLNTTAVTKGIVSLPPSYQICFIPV

[6] = target: T4, breast cancer-related protein (BCRP) (Homo sapiens, UniProt Q9UNQ0); experiment: BCRP inhibition; details: not told
T4 sequence (Q9UNQ0 1-655): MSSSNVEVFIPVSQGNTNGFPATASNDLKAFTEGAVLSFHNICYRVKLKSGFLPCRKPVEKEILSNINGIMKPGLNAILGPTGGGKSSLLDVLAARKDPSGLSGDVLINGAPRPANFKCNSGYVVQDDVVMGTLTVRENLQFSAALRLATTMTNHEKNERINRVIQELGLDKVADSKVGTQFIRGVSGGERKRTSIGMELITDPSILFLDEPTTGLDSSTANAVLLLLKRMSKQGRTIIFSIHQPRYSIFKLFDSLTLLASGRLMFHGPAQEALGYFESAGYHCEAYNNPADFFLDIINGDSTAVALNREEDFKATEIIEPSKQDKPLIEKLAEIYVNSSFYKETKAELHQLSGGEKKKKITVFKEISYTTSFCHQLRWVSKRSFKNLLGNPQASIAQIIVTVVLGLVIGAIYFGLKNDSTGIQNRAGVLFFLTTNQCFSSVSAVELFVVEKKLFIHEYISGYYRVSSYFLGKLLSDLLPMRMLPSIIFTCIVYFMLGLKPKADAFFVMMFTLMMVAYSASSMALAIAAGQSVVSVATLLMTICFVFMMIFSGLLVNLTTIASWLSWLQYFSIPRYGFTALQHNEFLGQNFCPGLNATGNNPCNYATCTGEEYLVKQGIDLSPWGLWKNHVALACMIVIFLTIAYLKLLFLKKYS

[7] = target: multidrug resistance protein 1 (MDR1) (Homo sapiens, UniProt P08183); experiment: MDR1 inhibition
[8] = tested on: mouse model of a metabolic disorder; details: reported earlier; effects require MPC expression in hepatocytes; cited from earlier work
[9] = Earlier phase 2 trials: adiponectin at 28 days; set-up: species or system human; details: in vivo

SMILES | share of the combined exposure [1] | inhibition of organic anion transporter 3 (OAT3) [2] | binding to the MPC [3] | reduction in binding affinity for PPARγ compared to pioglitazone [4] | inhibition of CYP2C8 [5] | inhibition of BCRP [6] | inhibition of MDR1 [7] | damage caused to the liver [8] | increase in adiponectin levels [9] [%]
COc1cccc(C(O)COc2ccc(CC3SC(=O)NC3=O)cc2)c1 (centres unmarked) [MSDC-0597] | more than 90% | inhibitors | maintain, and in some cases improve, binding to the MPC | more than fifty-fold | weak inhibitor |  |  |  | 
COc1cccc(C(=O)COc2ccc(CC3SC(=O)NC3=O)cc2)c1 (centres unmarked) [MSDC-0602] |  | inhibitors | maintain, and in some cases improve, binding to the MPC |  |  | inhibitor | inhibitor | prevents and reverses damage caused to the liver | 146
